# Results published in US20180238860A1, “INDIVIDUAL METHOD PREDICTIVE OF THE DNA-BREAKING GENOTOXIC EFFECTS OF CHEMICAL OR BIOCHEMICAL AGENTS” (priority 2015, published 2018).
# Tests used:
# Format in all cases: cell-based, human
# 01PAU cells [1] = test: pH2AX foci 24 h after contacting, 01PAU
# Protocol: (§1) In one embodiment, on receipt, the tissue sample (typically the biopsy) is established in the form of an amplifiable cell line without a viral or chemical transformation agent according to an ancillary procedure well known to culture laboratories, as underlined by the publication of Elkind et al. “The radiobiology of cultured mammalian cell”, Gordon and Breach (1967). Once the number of cells is sufficient (typically after 1 to 3 weeks), the first experiments are carried out using the process according to the invention. A cell sample is prepared: The cells are inoculated on glass coverslips in Petri dishes. A portion of these coverslips are contaminated with metals or pesticides or any other DNA-breaking chemical or biochemical agent at different concentrations. A further portion is not contaminated; it represents the spontaneous state. During contamination, the cells remain in the culture incubator at 37° C.
# (§2) For the contaminated cells, characteristics are acquired corresponding to the state after an incubation time with the DNA-breaking chemical or biochemical agent. Said characteristics are represented by foci corresponding to the marker pH2AX. The cells on glass coverslips are then fixed, lysed and hybridized. The following procedure, known per se (Bodgi et al, “A single formula to describe radiation-induced protein relocalization: towards a mathematical definition of individual radiosensitivity”, J Theor Biol. 21 p 333:135-45.2013):
# the cells are fixed in 3% paraformaldehyde and 2% sucrose for 15 minutes at ambient temperature and permeabilized in 20 mM HEPES buffer solution (4-(2-hydroxyethyl)-1-piperazine ethane sulfonic acid) at pH 7.4, 50 mM NaCl, 3 mM MgCl2, 300 mM sucrose, 0.5% Triton X-100 (a non-ionic surfactant having the formula t-Oct-C6H4-(OCH2CH2)×OH where x=9-10, CAS No. 9002-93-1, supplied for example by Sigma Aldrich) for 3 minutes. The glass coverslips are then washed in phosphate buffer saline (known as the acronym PBS) before immunological staining. The incubation took place for 40 min at 37° C. in PBS supplemented with 2% bovine serum albumin (known as the acronym BSA or fraction V, supplied for example by Sigma Aldrich) and was followed by a wash with PBS. Anti-pH2AX primary antibodies are used at a concentration of 1:800. […]
# The results are acquired using these coverslips on an immunofluorescence microscope (Olympus model for example). The reading may be direct (typically by counting the foci on at least 50 cells in G0/G1 for each point) or using dedicated image analysis software, or on an automated microscope; preferably the software or automated microscope methods are calibrated with manual determinations. […]
# 01PAU cells [2] = test: Micronuclei per 100 cells 24 h after contacting, 01PAU
# Protocol: as §1
# (§3) the cells are fixed in 3% paraformaldehyde and 2% sucrose for 15 minutes at ambient temperature and permeabilized in 20 mM HEPES buffer solution (4-(2-hydroxyethyl)-1-piperazine ethane sulfonic acid) at pH 7.4, 50 mM NaCl, 3 mM MgCl2, 300 mM sucrose, 0.5% Triton X-100 (a non-ionic surfactant having the formula t-Oct-C6H4-(OCH2CH2)×OH where x=9-10, CAS No. 9002-93-1, supplied for example by Sigma Aldrich) for 3 minutes. The glass coverslips are then washed in phosphate buffer saline (known as the acronym PBS) before immunological staining. The incubation took place for 40 min at 37° C. in PBS supplemented with 2% bovine serum albumin (known as the acronym BSA or fraction V, supplied for example by Sigma Aldrich) and was followed by a wash with PBS. Anti-pH2AX primary antibodies are used at a concentration of 1:800. The incubations with anti-mouse FITC or anti-rabbit TRITC secondary antibodies (1:100, supplied by Sigma Aldrich) were performed at 37° C. in 2% BSA for 20 minutes. Glass coverslips were treated with Vectashield™ containing DAPI (4,6-Diamidino-2-phenylindole) to label the nucleus. Staining with DAPI also makes it possible, indirectly, to determine the number of cells in phase G1 (nuclei with homogenous DAPI staining), in phase S (nuclei with numerous pH2AX foci), in phase G2 (nuclei with heterogeneous DAPI staining) and metaphases (visible chromosomes).
# (§4) Counterstaining with DAPI (a DNA marker known to those skilled in the art) makes it possible to locate the nucleus to situate the cytoplasmic or nuclear location to quantify the micronuclei, which are complementary cell markers to the data on the foci.
# The tables hereinafter summarize the results of numerous experiments which were carried out as described in the “Detailed description” section above. […]
# 04PSL cells [3] = test: pH2AX foci immunofluorescence 24 h after contacting, 04PSL patient skin cell line; details: for pH2AX: 24 hours after contacting (Table 3); for pH2AX(24) + 2xSEM: 24 hours; for pH2AX(24 h): 24 hours after contacting (Table 1)
# Protocol: as §3
# A skin cell sample from a patient was sampled by biopsy via the “skin punch” method known to those skilled in the art. The cell sample was then placed in DMEM medium+20% sterile fetal calf serum. The cell sample was then transferred without delay to a specialized laboratory, so that the sample remained not more than 38 hours at ambient temperature.
# On receipt, the cell sample from the biopsy was established in the form of an amplifiable 04PSL cell line according to a procedure well known to culture laboratories and those skilled in the art: using particularly the trypsin dispersion, the cells are once again diluted in replenished medium and so on until the number of cells sought is obtained. […] The 04PSL line cells were inoculated on glass coverslips in Petri dishes.
# (§5) The acquisition of the results was carried out using these coverslips on an immunofluorescence microscope (Olympus model). The reading was performed directly by counting the foci obtained with the marker pH2AX on at least 50 cells in G0/G1 for each point or using dedicated image analysis software (imageJ).
# In order to obtain results of sufficient statistical reliability to serve as a basis for diagnosis, 3 independent series of experiments were performed.
# (§6) In tables 3 and 4, “pH2AX” corresponds to the mean number of nuclear foci obtained with the marker pH2AX, 24 hours after contacting the cell sample with the chemical agent at the concentration C (NpH2AX(24 h, C)), and where “Micronuclei” corresponds to the mean number of micronuclei observed per 100 cells 24 hours after contacting the cell sample with the chemical agent at the concentration C(NMN(24 h, C)).
# 149BR (control cells) = test: pH2AX foci immunofluorescence 24 h after contacting, 149BR control fibroblasts; details: for pH2AX(24) + 2xSEM / pH2AX(24): 149BR; for pH2AX(24) + 2xSEM: 24 hours; for pH2AX(24): 24 hours after contacting
# Protocol: as §1, §2, §3
# (§7) The results are acquired using these coverslips on an immunofluorescence microscope (Olympus model for example). The reading may be direct (typically by counting the foci on at least 50 cells in G0/G1 for each point) or using dedicated image analysis software, or on an automated microscope; preferably the software or automated microscope methods are calibrated with manual determinations.
# (§8) Commercial 1BR3 and 149 BR control fibroblasts were amplified according to the recommendations of the supplier (SIGMA-ALDRICH) until the number of cells sought was obtained. After obtaining a sufficient number of cells (generally after one to 3 weeks), the first experiments were conducted using the process according to the invention. The cells were inoculated on glass coverslips in Petri dishes.
# as §5, with “(imageJ). […]” for “(imageJ).”
# 04PSL cells [4] = test: Micronuclei per 100 cells (DAPI) 24 h after contacting, 04PSL
# Protocol: as §1, §3, §4
# The tables hereinafter summarize the results of numerous experiments which were carried out as described in the “Detailed description” section above.
# as §6
# 1BR3 (control cells) = test: pH2AX foci immunofluorescence 24 h after contacting, 1BR3 control fibroblasts; details: for pH2AX(24) + 2xSEM / pH2AX(24): 1BR3; for pH2AX(24) + 2xSEM: 24 hours; for pH2AX(24): 24 hours after contacting
# Protocol: as §1, §2, §3, §7, §8
# as §5, with “(imageJ). […]” for “(imageJ).”
smiles,measurement,setting,value
CC1(C)C(C=C(Cl)Cl)C1C(=O)OCc1cccc(Oc2ccccc2)c1 (stereo not drawn) [Permethrin],pH2AX,01PAU cells [1]; 0.3 μM,0.1 foci
same,pH2AX,01PAU cells [1]; 1 μM,0.2 foci
same,pH2AX,01PAU cells [1]; 5 μM,1.3 foci
same,pH2AX,01PAU cells [1]; 10 μM,1.8 foci
same,Micronuclei,01PAU cells [2]; 0.3 μM,2 per 100 cells
same,Micronuclei,01PAU cells [2]; 1 μM,2 per 100 cells
same,Micronuclei,01PAU cells [2]; 5 μM,4 per 100 cells
same,Micronuclei,01PAU cells [2]; 10 μM,6 per 100 cells
O=C(O)CNCP(=O)(O)O [glyphosate],pH2AX,04PSL cells [3]; 3 μM,1.7 foci
same,pH2AX,04PSL cells [3]; 10 μM,1.9 foci
same,pH2AX,04PSL cells [3]; 30 μM,4.8 foci
same,pH2AX,04PSL cells [3]; 100 μM,6.5 foci
same,pH2AX,04PSL cells [3]; 300 μM,8.7 foci
same,pH2AX(24) + 2xSEM,04PSL cells [3]; glyphosate 3 μM,1.972 foci
same,pH2AX(24 h),04PSL cells [3]; glyphosate 3 μM,1.7 foci
same,pH2AX(24) + 2xSEM,04PSL cells [3]; glyphosate 10 μM,2.088 foci
same,pH2AX(24 h),04PSL cells [3]; glyphosate 10 μM,1.8 foci
same,pH2AX(24) + 2xSEM,04PSL cells [3]; glyphosate 30 μM,4.756 foci
same,pH2AX(24 h),04PSL cells [3]; glyphosate 30 μM,4.1 foci
same,pH2AX(24) + 2xSEM,04PSL cells [3]; glyphosate 100 μM,6.96 foci
same,pH2AX(24 h),04PSL cells [3]; glyphosate 100 μM,6 foci
same,pH2AX(24) + 2xSEM,04PSL cells [3]; glyphosate 300 μM,9.744 foci
same,pH2AX(24 h),04PSL cells [3]; glyphosate 300 μM,8.4 foci
same,number of pH2AX foci,"04PSL cells [3]; glyphosate concentration of 100 μM, 24 h",approximately 7 foci
same,pH2AX(24) + 2xSEM,149BR (control cells); glyphosate 3 μM,0.928 foci
same,pH2AX(24),149BR (control cells); glyphosate 3 μM,0.8 foci
same,pH2AX(24) + 2xSEM,149BR (control cells); glyphosate 10 μM,1.16 foci
same,pH2AX(24),149BR (control cells); glyphosate 10 μM,1 foci
same,pH2AX(24) + 2xSEM,149BR (control cells); glyphosate 30 μM,1.74 foci
same,pH2AX(24),149BR (control cells); glyphosate 30 μM,1.5 foci
same,pH2AX(24) + 2xSEM,149BR (control cells); glyphosate 100 μM,2.088 foci
same,pH2AX(24),149BR (control cells); glyphosate 100 μM,1.8 foci
same,pH2AX(24) + 2xSEM,149BR (control cells); glyphosate 300 μM,3.48 foci
same,pH2AX(24),149BR (control cells); glyphosate 300 μM,3 foci
same,"reference concentration Cref defined by NpH2AX(24 h, Cref)+2σ=2",149BR (control cells); control cell line 149BR,100 µM
same,Micronuclei,04PSL cells [4]; 3 μM,6 per 100 cells
same,Micronuclei,04PSL cells [4]; 10 μM,4 per 100 cells
same,Micronuclei,04PSL cells [4]; 30 μM,10 per 100 cells
same,Micronuclei,04PSL cells [4]; 150 μM,12 per 100 cells
same,Micronuclei,04PSL cells [4]; 300 μM,14 per 100 cells
same,pH2AX(24) + 2xSEM,1BR3 (control cells); glyphosate 3 μM,1.856 foci
same,pH2AX(24),1BR3 (control cells); glyphosate 3 μM,1.6 foci
same,pH2AX(24) + 2xSEM,1BR3 (control cells); glyphosate 10 μM,1.856 foci
same,pH2AX(24),1BR3 (control cells); glyphosate 10 μM,1.6 foci
same,pH2AX(24) + 2xSEM,1BR3 (control cells); glyphosate 30 μM,2.204 foci
same,pH2AX(24),1BR3 (control cells); glyphosate 30 μM,1.9 foci
same,pH2AX(24) + 2xSEM,1BR3 (control cells); glyphosate 100 μM,2.32 foci
same,pH2AX(24),1BR3 (control cells); glyphosate 100 μM,2 foci
same,pH2AX(24) + 2xSEM,1BR3 (control cells); glyphosate 300 μM,2.668 foci
same,pH2AX(24),1BR3 (control cells); glyphosate 300 μM,2.3 foci
same,"reference concentration Cref defined by NpH2AX(24 h, Cref)+2σ=2",1BR3 (control cells); control cell line 1BR3,100 µM
